Read-outs that look alike come from different tables or passages of the source.
Legend:
[1] = Desloratadine stability (assay, regression analysis); format: physicochemical; conditions: Example 1 formulation, regression analysis of data through 18 months
Description: Data obtained through 18 months at 25° C./60% RH and 30° C./65% RH were evaluated by regression analysis in order to determine a suitable shelf life (see FIGS. 2A and 2B).

[2] = cited from earlier work
[3] = Example 1 formulation; throughout the 18 month stability interval
Description: (§1) Three batches of the exemplary formulation detailed in Example 1 were manufactured (referred to herein as Batches A, B, and C) and packaged in two different sizes of amber glass bottles (120 mL and 15 mL).

Sodium benzoate assay = format: physicochemical; conditions: Example 1 formulation; throughout the 18 month stability interval
Description: as §1

Clc1ccc2c(c1)CCc1cccnc1C2=C1CCNCC1 [Desloratadine, 8-chloro-6,11-dihydro-11-(4-piperidinylidene)-5H-benzo[5,6]cyclohepta[1,2-b]pyridine]
predicted desloratadine assay value over a 24 month shelf life ([1]; stored at 25° C./60% RH): 100.9% | predicted desloratadine assay value over a 24 month shelf life ([1]; stored at 30° C./65% RH): 98.9% | solubility ([2]; in ethanol): very soluble | solubility ([2]; in propylene glycol): very soluble | solubility ([2]; in water): slightly soluble

O=C([O-])CN(CCN(CC(=O)[O-])CC(=O)O)CC(=O)O.[Na+].[Na+] [EDTA, Edetate Disodium]
EDTA assay trend [3]: no degradation trend

O=C([O-])c1ccccc1.[Na+] [sodium benzoate]
sodium benzoate assay trend (Sodium benzoate assay): no degradation trend

From US20080262017A1, “Sugar-Free Storage-Stable Antihistaminic Syrups” (priority 2006, published 2008)
